According to US8293769B2, “CSF-1R inhibitors, compositions, and methods of use” (Novartis AG, priority 2008, dated 2012):

Assays:
[1] = target: T1, full-length human CSF-1R receptor (Homo sapiens, UniProt P07333); test: In vitro inhibition of CSF-1R receptor tyrosine phosphorylation in transfected HEK293H cells; type: cell-based; settings: HEK293-H, tested at about 1 μM, 50 ng/mL MCSF, read-out: PCSF1R percent inhibition
T1 construct: transfected with the full-length human CSF-1R receptor cloned in house; expressed in transfected cells; host or cells: HEK293H (Invitrogen Cat. #11631017)
T1 sequence (P07333 20-972): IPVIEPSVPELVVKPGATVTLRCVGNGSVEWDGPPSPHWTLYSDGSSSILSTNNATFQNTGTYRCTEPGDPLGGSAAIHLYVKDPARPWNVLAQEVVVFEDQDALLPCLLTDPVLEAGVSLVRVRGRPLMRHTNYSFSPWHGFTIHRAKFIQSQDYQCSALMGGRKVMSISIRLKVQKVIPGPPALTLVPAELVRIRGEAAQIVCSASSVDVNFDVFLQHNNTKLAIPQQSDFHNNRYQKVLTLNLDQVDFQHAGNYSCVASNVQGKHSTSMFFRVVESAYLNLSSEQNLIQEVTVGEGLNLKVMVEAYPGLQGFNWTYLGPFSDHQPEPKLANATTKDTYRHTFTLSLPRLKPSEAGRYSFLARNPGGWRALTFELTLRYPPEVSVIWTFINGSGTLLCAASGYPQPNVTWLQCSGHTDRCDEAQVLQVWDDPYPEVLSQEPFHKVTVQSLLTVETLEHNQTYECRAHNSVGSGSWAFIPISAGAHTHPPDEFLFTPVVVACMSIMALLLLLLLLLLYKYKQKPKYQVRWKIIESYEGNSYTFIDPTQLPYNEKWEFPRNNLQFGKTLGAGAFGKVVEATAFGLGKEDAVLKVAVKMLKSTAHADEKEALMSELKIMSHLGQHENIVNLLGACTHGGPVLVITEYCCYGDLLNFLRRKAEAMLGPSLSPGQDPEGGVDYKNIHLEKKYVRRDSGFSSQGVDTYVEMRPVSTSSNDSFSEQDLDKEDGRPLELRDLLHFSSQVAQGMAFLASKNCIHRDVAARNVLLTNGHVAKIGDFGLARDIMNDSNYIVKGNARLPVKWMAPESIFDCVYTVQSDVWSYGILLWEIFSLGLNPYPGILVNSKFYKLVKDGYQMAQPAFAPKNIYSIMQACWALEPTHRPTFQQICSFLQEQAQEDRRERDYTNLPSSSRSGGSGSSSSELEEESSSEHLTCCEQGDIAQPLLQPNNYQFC
Procedure: To test the inhibition of CSF-1R receptor tyrosine phosphorylation, HEK293H purchased from Invitrogen Cat. #11631017 cells transfected with the full-length human CSF-1R receptor cloned in house into mammalian episomal transfection vector were incubated for 1 h with serial dilutions of compounds starting at 10 μM with 3 fold dilutions and then stimulated for 8 min with 50 ng/mL MCSF. After the supernatant was removed, the cells were lysed on ice with lysis buffer (150 mM NaCl, 20 mM Tris, pH 7.5, 1 mM EDTA, 1 mM EGTA, 1% Triton X-100 and NaF, protease and phosphatase inhibitors) and then shaken for 15-20 min at 4° C. The lysate was then transferred to total CSF-1R antibody coated 96-well plates that had already been blocked with 3% Blocker A from Mesoscale discovery (MSD) for 2 hours and washed afterwards. Lysates were incubated overnight at 4° C. and the plates were then washed 4× with MSD Tris Wash Buffer. The SULFO-TAG anti-pTyr antibody from MSD was diluted to 20 nM final in 1% Blocker A (MSD) solution and added to the washed plates and incubated for 1.5-2 h before addition of read buffer (MSD). The plates were read on the Sector 6000 instrument (MSD). Raw data was imported in Abase and EC50s calculated with XL-fit data analysis software.

[2] = test system: MNFS60 (murine AML cells); test: Cell viability assay in MCSF dependent MNFS60 cells (Cell Titer Glo); type: cell-based; settings: Mus musculus; tested at about 1 μM; MCSF 10 ng/mL, 72 hrs; read-out: CPEC50 MNFS60MCSF percent inhibition
Procedure: Cell viability was assessed by Cell Titer Glo, Promega. MNFS60 (murine AML cells) were seeded in TC treated 96-well plates at a density of 5,000 cells per well in RPMI-1640, 10% FBS, and 1% Penicillin Streptomycin prior to addition of compound. Test compounds were serially diluted (3 fold) in DMSO to 500× the final concentration. For each concentration of test compound, 2 μl (500×) aliquots of compound or 100% DMSO (control) were diluted in 500 μl of culture medium that contained 2× final concentration of growth factor MCSF for 2× concentration and then diluted 1× on the cells. Final concentration of MCSF is 10 ng/mL. Cells were incubated for 72 hrs at 37° C., 5% CO2. After the incubation 100 μl Cell Titer Glo is added to each well to determine viable cells. The assay was performed according to the manufacturer's instruction (Promega Corporation, Madison, Wis. USA). Each experimental condition was performed in triplicate. Raw data was imported in Abase and EC50s calculated with XL-fit data analysis software: Relative light units of wells that contained cells without MCSF in the media and as a consequence didn't grow were defined as 100% inhibited.

[3] = target: T2, cKIT (Homo sapiens, UniProt P10721); test: cKIT kinase in vitro biochemical assay (alphascreen); settings: tested at about 1 μM; read-out: CKIT percent inhibition
T2 construct: The kinase domain of cKIT was assayed in 50 mM Hepes; purchased Upstate 14-559
T2 sequence (P10721 589-937 limits assumed): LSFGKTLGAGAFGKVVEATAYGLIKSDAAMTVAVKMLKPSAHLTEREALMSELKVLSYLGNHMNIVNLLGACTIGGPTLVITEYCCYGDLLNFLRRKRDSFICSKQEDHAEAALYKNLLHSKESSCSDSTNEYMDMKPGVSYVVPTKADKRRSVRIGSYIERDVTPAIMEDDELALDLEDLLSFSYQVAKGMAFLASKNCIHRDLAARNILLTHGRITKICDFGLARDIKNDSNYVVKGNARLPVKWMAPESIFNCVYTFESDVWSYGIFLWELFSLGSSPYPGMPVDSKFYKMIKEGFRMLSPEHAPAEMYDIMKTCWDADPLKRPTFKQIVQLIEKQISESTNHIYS

[4] = target: T3, cytoplasmic domain of the human CSF-1R (Homo sapiens, UniProt P07333); test: In vitro kinase assay for CSF-1R (AlphaScreen); type: biochemical; settings: tested at about 1 μM; read-out: CSF1RK 1 percent inhibition
T3 construct: Recombinant protein corresponding to the cytoplasmic domain of the human CSF-1R; purchased Invitrogen Corporation, Carlsbad, Calif; PV3249
T3 sequence (P07333 539-972 limits assumed): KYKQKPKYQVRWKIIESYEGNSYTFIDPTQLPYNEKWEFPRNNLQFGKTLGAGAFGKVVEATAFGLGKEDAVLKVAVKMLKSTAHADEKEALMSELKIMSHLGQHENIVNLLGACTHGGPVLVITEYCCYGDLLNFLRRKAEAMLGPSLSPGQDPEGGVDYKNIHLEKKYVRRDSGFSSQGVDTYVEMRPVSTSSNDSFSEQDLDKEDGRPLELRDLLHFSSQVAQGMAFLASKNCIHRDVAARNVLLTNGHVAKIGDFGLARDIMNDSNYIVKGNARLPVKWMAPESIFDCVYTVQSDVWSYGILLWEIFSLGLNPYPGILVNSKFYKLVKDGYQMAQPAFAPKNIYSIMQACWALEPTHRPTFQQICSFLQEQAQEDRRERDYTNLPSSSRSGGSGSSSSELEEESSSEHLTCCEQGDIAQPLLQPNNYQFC
How it was run: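 Recombinant CSF-1R cytoplasmic domain (4 nM) phosphorylated biotinylated peptide (0.05 μM) at 1.0 μM ATP in HEPES with Mg2+/Mn2+, 2 h at room temperature, compounds from 25 μM in 3-fold steps. AlphaScreen anti-phosphotyrosine PT66 detection; IC50 by non-linear regression.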

[5] = target: T4, PDGFRb (Homo sapiens, UniProt P09619); test: PDGFRb kinase in vitro biochemical assay (alphascreen); settings: tested at about 1 μM; read-out: PDGF RK BETA percent inhibition
T4 construct: The kinase domain of PDGFRβ was assayed in 50 mM Hepes; purchased Invitrogen P3082
T4 sequence (P09619 600-962 limits assumed): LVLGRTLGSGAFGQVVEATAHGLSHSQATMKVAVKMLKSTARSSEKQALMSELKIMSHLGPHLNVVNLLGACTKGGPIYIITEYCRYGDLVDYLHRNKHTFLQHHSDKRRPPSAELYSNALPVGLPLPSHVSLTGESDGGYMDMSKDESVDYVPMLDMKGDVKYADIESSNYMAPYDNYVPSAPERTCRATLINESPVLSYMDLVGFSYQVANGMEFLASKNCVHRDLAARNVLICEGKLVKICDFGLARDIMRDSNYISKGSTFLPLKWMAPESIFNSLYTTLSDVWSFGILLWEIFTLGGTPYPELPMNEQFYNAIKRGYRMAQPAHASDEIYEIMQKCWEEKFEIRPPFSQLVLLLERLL

SMILES | inhibition at 1 µM [1] [%] | inhibition at 1 µM [3] [%] | inhibition at 1 µM [4] [%] | inhibition at 1 µM [5] [%] | inhibition at 1 µM [2] [%]
O[C@@H]1CCCC[C@H]1Nc1nc2ccc(Oc3ccnc(-c4cccnc4)n3)cc2s1 [Compound 27, (1R,2R)-2-(6-(2-(pyridin-3-yl)pyrimidin-4-yloxy)benzo [d]thiazol-2-ylamino) cyclohexanol] | 78 | 20 | 100 | 8 | 54
C[C@H](Nc1nc2ccc(Oc3ccnc(-c4cccnc4)n3)cc2s1)C1CCCCC1 [Compound 31, (S)-N-(1-cyclohexylethyl)-6-(2-(pyridin-3-yl)pyrimidin-4-yloxy)benzo[d] thiazol-2-amine] | 59 | 29 | 100 | 6 | 58
C[C@H](Nc1nc2ccc(Oc3ccnc(-c4ccncc4)n3)cc2s1)C1CCCCC1 [Compound 32, (S)-N-(1-cyclohexylethyl)-6-(2-(pyridin-4-yl)pyrimidin-4-yloxy)benzo[d] thiazol-2-amine] | 70 | 30 | 100 | 14 | 58
O[C@@H]1CCCC[C@H]1Nc1nc2ccc(Oc3cncc(Br)c3)cc2s1 [Compound 45, (1R,2R)-2-(6-(5-bromopyridin-3-yloxy)benzo[d]thiazol-2-ylamino)cyclohexanol] | 93 | 60 | 100 | 5 | 96
CCN(CC)CCn1cc(-c2cncc(Oc3ccc4nc(N[C@@H]5CCCC[C@H]5O)sc4c3)c2)cn1 [Compound 81, (1R,2R)-2-(6-(5-(1-(2-(diethylamino)ethyl)-1H-pyrazol-4-yl)pyridin-3-yloxy)benzo[d]thiazol-2-ylamino)cyclohexanol] |  | 56 | 100 | 0 | 100
O[C@@H]1CCCC[C@H]1Nc1nc2ccc(Oc3cncc(-c4cnccn4)c3)cc2s1 [Compound 84, (1R,2R)-2-(6-(5-(pyrazin-2-yl)pyridin-3-yloxy)benzo[d]thiazol-2-ylamnino) cyclohexanol] |  | 99 | 100 | 100 | 100
O[C@@H]1CCCC[C@H]1Nc1nc2ccc(Oc3cncc(C4=CCNCC4)c3)cc2s1 [Compound 85, (1R,2R)-2-(6-(5-(1,2,3,6-tetrahydropyridin-4-yl)pyridin-3-yloxy)benzo[d]thiazol-2-ylamino)cyclohexanol] |  | 13 | 96 | 2 | 13
C[C@H](Nc1nc2ccc(Oc3ccc(NO)nc3)cc2s1)C1CCCCC1 [Compound 101, (S)—N-(1-cyclohexylethyl)-6-(6-(hydroxyamino)pyridin-3-yloxy)benzo[d]thiazol-2-amine] |  | 74 | 100 | 31 | 58
CN1CCN(c2ccc(-c3cc(Oc4ccc5nc(N[C@@H]6CCCC[C@H]6O)sc5c4)cnc3Cl)cn2)CC1 [Compound 103, (1R,2R)-2-(6-(2-chloro-6′-(4-methylpiperazin-1-yl)-3,3′-bipyridin-5-yloxy)benzo[d]thiazol-2-ylamino)cyclohexanol] |  | 14 | 100 | 9 | 35
O[C@@H]1CCCC[C@H]1Nc1nc2ccc(Oc3cccnc3)cc2s1 [Compound 110, (1R,2R)-2-(6-(pyridin-3-yloxy)benzo[d]thiazol-2-ylamino)cyclohexanol] |  | 10 | 100 | 14 | 54

More lines, main results first:

inhibition at 1 µM [1] [%] | inhibition at 1 µM [3] [%] | inhibition at 1 µM [4] [%] | inhibition at 1 µM [5] [%] | SMILES | inhibition at 1 µM [2] [%]
88 | 18 | 100 | 25 | O[C@@H]1CCCC[C@H]1Nc1nc2ccc(Oc3ccnc(-c4ccncc4)n3)cc2s1 [Compound 28, (1R,2R)-2-(6-(2-(pyridin-4-yl)pyrimidin-4-yloxy)benzo [d]thiazol-2-ylamino) cyclohexanol] | 67
96 | 43 | 100 | 10 | Cn1nccc1-c1cncc(Oc2ccc3nc(N[C@@H]4CCCC[C@H]4O)sc3c2)c1 [Compound 56, (1R,2R)-2-(6-(5-(1-methyl-1H-pyrazol-5-yl)pyridin-3-yloxy)benzo[d]thiazol-2-ylamino)cyclohexanol] | 93
 | 28 | 100 | 5 | O=C(c1cncc(-c2cncc(Oc3ccc4nc(N[C@@H]5CCCC[C@H]5O)sc4c3)c2)c1)N1CCOCC1 [Compound 75, (5′-(2-((1R,2R)-2-hydroxycyclohexylamino)benzo[d]thiazol-6-yloxy)-3,3′-bipyridin-5-yl) (morpholino)methanone] | 33
 | 24 | 100 | 0 | CN(C)c1ncc(-c2cncc(Oc3ccc4nc(N[C@@H]5CCCC[C@H]5O)sc4c3)c2)cn1 [Compound 76, (1R,2R)-2-(6-(5-(2-(dimethylamino)pyrimidin-5-yl)pyridin-3-yloxy)benzo [d]thiazol-2-ylamino) cyclohexanol] | 54
 | 66 | 100 | 0 | CCn1cc(-c2cncc(Oc3ccc4nc(N[C@@H]5CCCC[C@H]5O)sc4c3)c2)cn1 [Compound 80, (1R,2R)-2-(6-(5-(1-ethyl-1H-pyrazol-4-yl)pyridin-3-yloxy)benzo[d]thiazol-2-ylamino)cyclohexanol] | 100
 | 18 | 100 | 8 | O[C@@H]1CCCC[C@H]1Nc1nc2ccc(Oc3cncc(-c4cnn(CCN5CCOCC5)c4)n3)cc2s1 [Compound 95, (1R,2R)-2-(6-(6-(1-(2-morpholinoethyl)-1H-pyrazol-4-yl)pyrazin-2-yloxy)benzo[d]thiazol-2-ylamino)cyclohexanol] | 47
 | 23 | 100 | 9 | O[C@@H]1CCCC[C@H]1Nc1nc2ccc(Oc3cncc(-c4cccnc4)n3)cc2s1 [Compound 96, (1R,2R)-2-(6-(6-(pyridin-3-yl)pyrazin-2-yloxy)benzo[d]thiazol-2-ylamino) cyclohexanol] | 32
